In patent US20180235210A1, “ANTISENSE COMPOSITIONS TARGETING ERWINIA SPECIES AND METHODS OF USING THE SAME” (priority 2017, published 2018):

Tests used:
Erwinia amylovora Ea110 = test: Measurement of bacterial growth inhibition / MIC in LB broth; assay type: cell-based
Method: The highly-virulent strain E. amylovora Ea110, which was isolated from an apple orchard in Michigan (Zhao et al., 2005), was used in this study. Bacterial strains were stored at −80° C. in 15% glycerol and cultured in Luria-Bertani (LB) medium at 28° C. PNA-CPP was synthesized using Bts oligomerization method by Panagene Inc (Daejeon, Korea). Streptomycin and PNA-CPP were implemented at rates indicated in each assay.
Erwinia amylovora Ea110 was cultured in LB broth overnight and then cell concentrations were adjusted to 5×10^5 CFU/ml in LB broth. A total of 80 μl of the bacterial suspension in LB was added into each well of a 96 well plate. Lyophilized PNA-CPP was resuspended in water to a stock concentration of 100 μM and was serial diluted. Twenty μl of the diluted PNA-CPP solution was added into each well that contained 80 μl of the bacterial suspension in LB to make the final concentrations indicated in each assay. Water and streptomycin were added to the wells as negative and positive controls. The plate was incubated at 28° C. with orbital shaking in a BioTek Synergy H1 microplate reader (BioTek, Winooski, Vt., USA) for 20 hr. During the incubation, the OD 600 of each well was measured every 10 min. The lowest concentration of a PNA-CPP that prevented growth after 20 hr represented the MIC. Three replicates were included in each testing, and the experiment was repeated twice.

acpP mRNA = test: Northern blot detection of acpP expression in treated cells; assay type: cell-based, Erwinia amylovora; conditions: streptomycin 1 μM and 3 μM, 15.5 hrs post inoculation
Method: E. amylovora Ea110 was inoculated into LB broth at the final concentration of 5×10^5 CFU/ml, and was treated with various concentrations of PNA-CPP, water, or streptomycin. The inoculated cells were incubated at 28° C. with orbital shaking, and were collected for RNA isolation at 15.5 hrs post inoculation. Total bacterial RNA was isolated using the RNeasy Protect Bacteria Mini Kit (Qiagen, Valencia, Calif., USA) following the manufacturer's instructions. The quality and quantity of RNA was measured with a Nanodrop 2000c (Thermo Scientific, Wilmington, Del., USA).
The probe for acpP detection in Northern blots was synthesized from polymerase chain reaction (PCR) using acpP primers (forward primer 5′-TGGGCGTTAAGCAGGAAGAAG-3′ (SEQ ID NO: 5) and reverse primer 5′-TACGCCTGGTGACCATTGAT (SEQ ID NO: 6)). The PCR product was purified using a QIAquick PCR Purification kit (Qiagen) and labelled using a Biotin DecaLabel DNA Labeling Kit (Thermo Fisher Scientific, Grand Island, N.Y.) as per instruction of kit manual. Thirty micrograms of RNA was loaded for each sample and was separated on a formaldehyde denaturing gel in MOPS buffer. BrightStar®-Plus positively-charged nylon membranes (Thermo Fisher Scientific) were used for transfer of RNA from gel to membrane. […] The biotin signal was detected using a Biotin Chromogenic Detection Kit (Thermo Fisher Scientific).

[1] = tested on: apple flower-associated bacteria; test: Susceptibility of apple flower-associated bacteria and biocontrol strains (panel); assay type: cell-based; conditions: streptomycin 20 μM
Method: Fifty flowers were collected from apple trees Malus×domestica ‘McIntosh’ from the Hamden, Conn. Lockwood farm in May 2016. The stigmas from all 50 flowers were removed, placed into 3 ml of 0.5×PBS, vortexed for 20 seconds, and sonicated for 5 min in a water bath sonicator to release the stigma associated bacteria. PBS buffer containing bacteria cells was serially diluted (10×, 100× and 1000×) and plated on LB agar medium and incubated at 28° C. for 48 h. On the basis of morphological colony characteristics, 200 bacterial colonies were shortlisted, sub-cultured, and identified using 16s rDNA sequencing using the forward primer 63f (5′-CAGGCCTAACACATGCAAGTC-3′) (SEQ ID NO: 10) and reverse primer 1387r (5′-GGG CGG WGT GTA CAA GGC-3′) (SEQ ID NO: 11). Fifteen different species were selected from the 200 bacterial cultures for testing against anti-acpP-CPP1 and streptomycin. Biological control agents Pseudomonas fluorescence A506, Bacillus amyloliquefaciens D747 and Pantoea agglomerans E325 were isolated from the original products on LB agar plate.
Compared to the traditional antibiotics that kill microbes with little selection, antisense antimicrobials inhibit bacterial growth through a sequence specific manner. […] Two hundred bacterial colonies were subcultured, and the identities of these colonies were determined by 16S rDNA sequencing. […]

Row | Compound | growth inhibition of E. amylovora (Erwinia amylovora Ea110; LB broth, any concentration tested, compared to water) | MIC (Erwinia amylovora Ea110; Erwinia amylovora, E. amylovora Ea110, LB broth, 28° C., 20 hr, read-out: minimal inhibitory concentration (MIC)) | acpP mRNA abundance (acpP mRNA) | susceptibility of strains tested [1]
1 | anti-acpP PNA: 10-nucleotide PNA oligomer 5′-ctcatactat-3′ (SEQ ID NO: 1), antisense to start codon region of acpP, no CPP (CTCATACTAT; all peptide nucleic acid (PNA)) | did not display any growth inhibition | – | – | –
2 | [H]/N=C(/N)N[C@H]1[C@H](O)[C@@H](O)[C@H](O[C@@H]2O[C@@H](C)[C@](O)(C=O)[C@H]2O[C@@H]2O[C@@H](CO)[C@H](O)[C@@H](O)[C@@H]2NC)[C@@H](N/C(N)=N\[H])[C@@H]1O [streptomycin] | – | 2 µM | did not affect | All strains tested are susceptible to streptomycin with the exception of P. fluorescens A506
